In PubChem BioAssay (NCI):
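48-hour exposure; five concentrations; linearly interpolated endpoints. TGI is the concentration that stops growth completely.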

Legend:
Assay in all cases: NCI tumour cell line growth inhibition, 48 h
OVCAR-4 ovarian = test system: OVCAR-4 ovarian
MCF7 breast = test system: MCF7 breast
SK-OV-3 ovarian = test system: SK-OV-3 ovarian
HT29 colon = test system: HT29 colon
SW-620 colon = test system: SW-620 colon
OVCAR-5 ovarian = test system: OVCAR-5 ovarian
UACC-62 melanoma = test system: UACC-62 melanoma
UO-31 renal = test system: UO-31 renal
HS 578T breast = test system: HS 578T breast
COLO 205 colon = test system: COLO 205 colon
MDA-MB-231 breast = test system: MDA-MB-231 breast
TK-10 renal = test system: TK-10 renal
A498 renal = test system: A498 renal
A549 NSCLC = test system: A549 NSCLC
ACHN renal = test system: ACHN renal
HOP-62 NSCLC = test system: HOP-62 NSCLC
SNB-75 CNS = test system: SNB-75 CNS
EKVX NSCLC = test system: EKVX NSCLC
SNB-19 CNS = test system: SNB-19 CNS
IGROV1 ovarian = test system: IGROV1 ovarian
HCT-116 colon = test system: HCT-116 colon
M14 melanoma = test system: M14 melanoma
T-47D breast = test system: T-47D breast
U251 CNS = test system: U251 CNS
SK-MEL-28 melanoma = test system: SK-MEL-28 melanoma
HCC-2998 colon = test system: HCC-2998 colon
NCI-H460 lung = test system: NCI-H460 lung
KM12 colon = test system: KM12 colon
CAKI-1 renal = test system: CAKI-1 renal
SF-268 CNS = test system: SF-268 CNS
MDA-MB-435 = test system: MDA-MB-435
786-0 renal = test system: 786-0 renal
NCI-H23 lung = test system: NCI-H23 lung
LOX IMVI melanoma = test system: LOX IMVI melanoma
DU-145 prostate = test system: DU-145 prostate
SF-295 CNS = test system: SF-295 CNS
RPMI-8226 leukemia = test system: RPMI-8226 leukemia
HL-60(TB) leukemia = test system: HL-60(TB) leukemia
RXF 393 renal = test system: RXF 393 renal
UACC-257 melanoma = test system: UACC-257 melanoma
OVCAR-8 ovarian = test system: OVCAR-8 ovarian
SR leukemia = test system: SR leukemia
SK-MEL-5 melanoma = test system: SK-MEL-5 melanoma
OVCAR-3 ovarian = test system: OVCAR-3 ovarian
SN12C renal = test system: SN12C renal
NCI/ADR-RES ovarian = test system: NCI/ADR-RES ovarian
NCI-H226 lung = test system: NCI-H226 lung
HCT-15 colon = test system: HCT-15 colon
NCI-H522 lung = test system: NCI-H522 lung
BT-549 breast = test system: BT-549 breast
PC-3 prostate = test system: PC-3 prostate
MDA-N = test system: MDA-N
MOLT-4 leukemia = test system: MOLT-4 leukemia
K-562 leukemia = test system: K-562 leukemia
CCRF-CEM leukemia = test system: CCRF-CEM leukemia
SK-MEL-2 melanoma = test system: SK-MEL-2 melanoma
SF-539 CNS = test system: SF-539 CNS
MALME-3M melanoma = test system: MALME-3M melanoma
HOP-92 NSCLC = test system: HOP-92 NSCLC

In the case of Oc1[nH]c2ccccc2c1N=Nc1ccccn1, the TGI (OVCAR-4 ovarian) is reported as 45.6 µM, the TGI (MCF7 breast) is reported as > 100 µM and the TGI (SK-OV-3 ovarian) is reported as 38.1 µM. The TGI (HT29 colon) was 55.5 µM, the TGI (SW-620 colon) was > 100 µM and the TGI (OVCAR-5 ovarian) was > 100 µM. For the same compound, the TGI (UACC-62 melanoma) was > 100 µM, the TGI (UO-31 renal) was 33.7 µM and the TGI (HS 578T breast) was > 100 µM. For the same compound, the TGI (COLO 205 colon) was > 100 µM, the TGI (MDA-MB-231 breast) was 38.1 µM and the TGI (TK-10 renal) was 53.7 µM. The TGI (A498 renal) was 70.6 µM, the TGI (A549 NSCLC) was > 100 µM and the TGI (ACHN renal) was 23 µM. For the same compound, the TGI (HOP-62 NSCLC) was 91.7 µM, the TGI (SNB-75 CNS) was 86.6 µM and the TGI (EKVX NSCLC) was > 100 µM. For the same compound, the TGI (SNB-19 CNS) was > 100 µM, the TGI (IGROV1 ovarian) was 90.7 µM and the TGI (HCT-116 colon) was 25.2 µM. The TGI (M14 melanoma) was > 100 µM, the TGI (T-47D breast) was > 100 µM and the TGI (U251 CNS) was 46.6 µM. The TGI (SK-MEL-28 melanoma) was > 100 µM, the TGI (HCC-2998 colon) was 82.8 µM and the TGI (NCI-H460 lung) was 35.6 µM. The TGI (KM12 colon) was 97.8 µM, the TGI (CAKI-1 renal) was > 100 µM and the TGI (SF-268 CNS) was > 100 µM. The TGI (MDA-MB-435) was > 100 µM, the TGI (786-0 renal) was 29.6 µM and the TGI (NCI-H23 lung) was > 100 µM. For the same compound, the TGI (LOX IMVI melanoma) was > 100 µM, the TGI (DU-145 prostate) was > 100 µM and the TGI (SF-295 CNS) was > 100 µM. The TGI (RPMI-8226 leukemia) was > 100 µM, the TGI (HL-60(TB) leukemia) was 86.5 µM and the TGI (RXF 393 renal) was > 100 µM. For the same compound, the TGI (UACC-257 melanoma) was > 100 µM, the TGI (OVCAR-8 ovarian) was 26.3 µM and the TGI (SR leukemia) was 47.6 µM. For the same compound, the TGI (SK-MEL-5 melanoma) was > 100 µM, the TGI (OVCAR-3 ovarian) was > 100 µM and the TGI (SN12C renal) was > 100 µM. The TGI (NCI/ADR-RES ovarian) was 28 µM, the TGI (NCI-H226 lung) was 61.7 µM and the TGI (HCT-15 colon) was > 100 µM. The TGI (NCI-H522 lung) was 78.8 µM, the TGI (BT-549 breast) was > 100 µM and the TGI (PC-3 prostate) was > 100 µM. The TGI (MDA-N) was > 100 µM, the TGI (MOLT-4 leukemia) was > 100 µM and the TGI (K-562 leukemia) was > 100 µM. For the same compound, the TGI (CCRF-CEM leukemia) was 58.8 µM and the TGI (SK-MEL-2 melanoma) was > 100 µM.

CC(C(=O)c1ccccc1)C(c1ccccc1)N1CCOCC1 (stereo unspecified) was tested, and the TGI (OVCAR-4 ovarian) was > 100 µM, the TGI (MCF7 breast) was > 100 µM and the TGI (SK-OV-3 ovarian) was > 100 µM. For the same compound, the TGI (HT29 colon) was > 100 µM, the TGI (SW-620 colon) was > 100 µM and the TGI (OVCAR-5 ovarian) was > 100 µM. The TGI (UACC-62 melanoma) was > 100 µM, the TGI (HS 578T breast) was > 100 µM and the TGI (COLO 205 colon) was > 100 µM. The TGI (MDA-MB-231 breast) was > 100 µM, the TGI (TK-10 renal) was > 100 µM and the TGI (A498 renal) was > 100 µM. The TGI (A549 NSCLC) was > 100 µM, the TGI (ACHN renal) was > 100 µM and the TGI (SF-539 CNS) was > 100 µM. The TGI (HOP-62 NSCLC) was > 100 µM, the TGI (SNB-75 CNS) was > 100 µM and the TGI (EKVX NSCLC) was > 100 µM. For the same compound, the TGI (SNB-19 CNS) was > 100 µM, the TGI (IGROV1 ovarian) was > 100 µM and the TGI (HCT-116 colon) was > 100 µM. The TGI (M14 melanoma) was > 100 µM, the TGI (T-47D breast) was > 100 µM and the TGI (U251 CNS) was > 100 µM. The TGI (SK-MEL-28 melanoma) was > 100 µM, the TGI (NCI-H460 lung) was > 100 µM and the TGI (KM12 colon) was > 100 µM. For the same compound, the TGI (CAKI-1 renal) was > 100 µM, the TGI (SF-268 CNS) was > 100 µM and the TGI (MDA-MB-435) was > 100 µM. For the same compound, the TGI (786-0 renal) was > 100 µM, the TGI (NCI-H23 lung) was > 100 µM and the TGI (LOX IMVI melanoma) was > 100 µM. The TGI (DU-145 prostate) was > 100 µM, the TGI (SF-295 CNS) was > 100 µM and the TGI (RPMI-8226 leukemia) was > 100 µM. For the same compound, the TGI (HL-60(TB) leukemia) was > 100 µM, the TGI (RXF 393 renal) was > 100 µM and the TGI (UACC-257 melanoma) was > 100 µM. For the same compound, the TGI (OVCAR-8 ovarian) was > 100 µM, the TGI (SR leukemia) was > 100 µM and the TGI (SK-MEL-5 melanoma) was > 100 µM. For the same compound, the TGI (MALME-3M melanoma) was > 100 µM, the TGI (OVCAR-3 ovarian) was > 100 µM and the TGI (HOP-92 NSCLC) was > 100 µM. For the same compound, the TGI (SN12C renal) was > 100 µM, the TGI (NCI/ADR-RES ovarian) was > 100 µM and the TGI (NCI-H226 lung) was > 100 µM. For the same compound, the TGI (HCT-15 colon) was > 100 µM, the TGI (NCI-H522 lung) was > 100 µM and the TGI (BT-549 breast) was > 100 µM. For the same compound, the TGI (PC-3 prostate) was > 100 µM, the TGI (MDA-N) was > 100 µM and the TGI (MOLT-4 leukemia) was > 100 µM. The TGI (K-562 leukemia) was > 100 µM, the TGI (CCRF-CEM leukemia) was > 100 µM and the TGI (SK-MEL-2 melanoma) was > 100 µM.

For Nn1c(COc2cccc(OCc3n[nH]c(=S)n3N)c2)n[nH]c1=S, the TGI (OVCAR-4 ovarian) was > 100 µM, the TGI (MCF7 breast) was > 100 µM and the TGI (SK-OV-3 ovarian) was > 100 µM. For the same compound, the TGI (HT29 colon) was > 100 µM, the TGI (SW-620 colon) was > 100 µM and the TGI (OVCAR-5 ovarian) was > 100 µM. For the same compound, the TGI (UACC-62 melanoma) was > 100 µM, the TGI (UO-31 renal) was > 100 µM and the TGI (HS 578T breast) was > 100 µM. The TGI (COLO 205 colon) was > 100 µM, the TGI (MDA-MB-231 breast) was > 100 µM and the TGI (TK-10 renal) was > 100 µM. For the same compound, the TGI (A498 renal) was > 100 µM, the TGI (A549 NSCLC) was > 100 µM and the TGI (ACHN renal) was > 100 µM. For the same compound, the TGI (SF-539 CNS) was > 100 µM, the TGI (HOP-62 NSCLC) was > 100 µM and the TGI (SNB-75 CNS) was > 100 µM. For the same compound, the TGI (EKVX NSCLC) was > 100 µM, the TGI (SNB-19 CNS) was > 100 µM and the TGI (IGROV1 ovarian) was > 100 µM. The TGI (HCT-116 colon) was > 100 µM, the TGI (M14 melanoma) was > 100 µM and the TGI (T-47D breast) was > 100 µM. For the same compound, the TGI (U251 CNS) was > 100 µM, the TGI (SK-MEL-28 melanoma) was > 100 µM and the TGI (HCC-2998 colon) was > 100 µM. The TGI (NCI-H460 lung) was > 100 µM, the TGI (KM12 colon) was > 100 µM and the TGI (CAKI-1 renal) was > 100 µM. For the same compound, the TGI (SF-268 CNS) was > 100 µM, the TGI (MDA-MB-435) was > 100 µM and the TGI (786-0 renal) was > 100 µM. For the same compound, the TGI (NCI-H23 lung) was > 100 µM, the TGI (LOX IMVI melanoma) was > 100 µM and the TGI (DU-145 prostate) was > 100 µM. The TGI (SF-295 CNS) was > 100 µM, the TGI (RPMI-8226 leukemia) was > 100 µM and the TGI (HL-60(TB) leukemia) was > 100 µM. The TGI (RXF 393 renal) was > 100 µM, the TGI (UACC-257 melanoma) was > 100 µM and the TGI (OVCAR-8 ovarian) was > 100 µM. For the same compound, the TGI (SR leukemia) was 34.6 µM, the TGI (MALME-3M melanoma) was > 100 µM and the TGI (OVCAR-3 ovarian) was > 100 µM. For the same compound, the TGI (HOP-92 NSCLC) was > 100 µM, the TGI (SN12C renal) was > 100 µM and the TGI (NCI/ADR-RES ovarian) was > 100 µM. For the same compound, the TGI (NCI-H226 lung) was > 100 µM, the TGI (HCT-15 colon) was > 100 µM and the TGI (NCI-H522 lung) was > 100 µM. The TGI (BT-549 breast) was > 100 µM, the TGI (PC-3 prostate) was > 100 µM and the TGI (MDA-N) was > 100 µM. For the same compound, the TGI (MOLT-4 leukemia) was 21.7 µM, the TGI (K-562 leukemia) was > 100 µM and the TGI (CCRF-CEM leukemia) was > 100 µM. For the same compound, the TGI (SK-MEL-2 melanoma) was > 100 µM.
